# From US8729089B2 (Gilead Sciences, Inc., priority 2006, dated 2014)
# Key:
# [1] = tested on: HCV replicon in human hepatoma Huh-7 cell line; assay: Anti-HCV replicon assay (EC50, luciferase); assay type: cell-based; conditions: Hepatitis C virus, Huh-7, 72 h
# Summary of the method: (§1)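 Cytotoxicity (CC50) measured by CellTiter-Glo and antiviral activity (EC50) by luciferase signal from lysed cells, both by luminescence. Replicon-bearing Huh-7 cells, 6000 per well, incubated 3 days at 37 °C with threefold-diluted compound (0.5% DMSO for DMSO-dissolved compounds).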
# [2] = CC50 assay (CellTiter-Glo) in Huh-7 HCV replicon cells; assay type: cell-based, human; conditions: human, 3 days incubation, CellTiter-Glo readout
# Summary of the method: as §1
SMILES,EC50 [1],CC50 at 3 days [2]
"CCOc1nc(NCc2ccc(S(N)(=O)=O)cc2)nc2ccc(-c3ccc(NC(=O)NC4CC4)cc3)nc12 [Example 131, 4-{[4-Ethoxy-6-(4-(3-cyclopropylureido)-phenyl)-pyrido[3,2-d]pyrimidin-2-ylamino]-methyl}-benzenesulfonamide]",< 0.1 µM,5 to 25 µM
CCOc1nc(NCc2ccc(S(N)(=O)=O)cc2)nc2ccc(-c3cccc(NS(=O)(=O)N(C)C)c3)nc12 [Example 132],< 0.1 µM,< 5 µM
"CCOc1nc(NCc2ccc(S(N)(=O)=O)cc2)nc2ccc(-c3cccc(S(N)(=O)=O)c3)nc12 [Example 133, 4-{[4-Ethoxy-6-(3-(aminosulfonyl)-phenyl)-pyrido[3,2-d]pyrimidin-2-ylamino]-methyl}-benzenesulfonamide]",< 0.1 µM,5 to 25 µM
"CCOc1nc(NCc2ccc(S(N)(=O)=O)cc2)nc2ccc(-c3ccc(S(N)(=O)=O)cc3)nc12 [Example 134, 4-{[4-Ethoxy-6-(4-(aminosulfonyl)-phenyl)-pyrido[3,2-d]pyrimidin-2-ylamino]-methyl}-benzenesulfonamide]",< 0.1 µM,5 to 25 µM
"CCOc1nc(NCc2ccc(S(N)(=O)=O)cc2)nc2ccc(-c3ccc(NC(=O)C(C)(C)N)cc3)nc12 [Example 135, 4-{[4-Ethoxy-6-(4-((2-amino-2-propyl)-carboxamido)-phenyl)-pyrido[3,2-d]pyrimidin-2-ylamino]-methyl}-benzenesulfonamide]",< 0.1 µM,< 5 µM
"CCOc1nc(NCc2ccc(S(N)(=O)=O)cc2)nc2ccc(-c3ccc(NC(=O)C4(O)CC4)cc3)nc12 [Example 136, 4-{[4-Ethoxy-6-(4-((1-hydroxy-1-cyclopropyl)-carboxamido)-phenyl)-pyrido[3,2-d]pyrimidin-2-ylamino]-methyl}-benzenesulfonamide]",< 0.1 µM,5 to 25 µM
"CCOc1nc(NCc2ccc(S(N)(=O)=O)cc2)nc2ccc(-c3ccc(NC(=O)[C@@H](N)CO)cc3)nc12 [Example 137, (S)-4-{[4-Ethoxy-6-(4-((2-hydroxy-1-aminoethyl)-carboxamido)-phenyl)-pyrido[3,2-d]pyrimidin-2-ylamino]-methyl}-benzenesulfonamide]",< 0.1 µM,5 to 25 µM
"CCOc1nc(NCc2ccc(S(N)(=O)=O)cc2)nc2ccc(-c3ccc(C(N)=O)cc3)nc12 [Example 138, 4-{[4-Ethoxy-6-(4-carbamoylphenyl)-pyrido[3,2-d]pyrimidin-2-ylamino]-methyl}-benzenesulfonamide]",< 0.1 µM,5 to 25 µM
"CCOc1nc(NCc2ccc(S(N)(=O)=O)cc2)nc2ccc(-c3ccc(F)c(NS(=O)(=O)C4CC4)c3)nc12 [Example 139, 4-{[4-Ethoxy-6-(4-(3-cyclopropanesulfonamido-4-fluoro)-phenyl)-pyrido[3,2-d]pyrimidin-2-ylamino]-methyl}-benzenesulfonamide]",< 0.1 µM,< 5 µM
"CCOc1nc(NCc2ccc(S(N)(=O)=O)cc2)nc2ccc(-c3cccc(N(CCO)S(C)(=O)=O)c3)nc12 [Example 140, 4-{[4-Ethoxy-6-(4-(3-(N-2-hydroxy-ethyl)methanesulfonamido)-phenyl)-pyrido[3,2-d]pyrimidin-2-ylamino]-methyl}-benzenesulfonamide]",0.1 to 0.25 µM,> 25 µM
"CCOc1nc(NCc2ccc(S(N)(=O)=O)cc2)nc2ccc(-c3ccc(C(=O)NC(C)(C)CN4CCCC4)cc3)nc12 [Example 142, 4-{[4-Ethoxy-6-(4-(N-(2-(pyrrolidin-1-yl)methyl-2-propyl)-carbamoyl)phenyl)-pyrido[3,2-d]pyrimidin-2-ylamino]-methyl}-benzenesulfonamide]",< 0.1 µM,< 5 µM
"CCOc1nc(NCc2ccc(S(N)(=O)=O)cc2)nc2ccc(-c3ccc(C(=O)NC4(C#N)CC4)cc3)nc12 [Example 143, 4-{[4-Ethoxy-6-(4-(N-(1-cyano-1-cyclopropyl)-carbamoyl)phenyl)-pyrido[3,2-d]pyrimidin-2-ylamino]-methyl}-benzenesulfonamide]",< 0.1 µM,5 to 25 µM
"CCOc1nc(NCc2ccc(S(N)(=O)=O)cc2)nc2ccc(-c3ccc(C(=O)NC4CC4)cc3)nc12 [Example 144, 4-{[4-Ethoxy-6-(4-(N-cyclopropylcarbamoyl)phenyl)-pyrido[3,2-d]pyrimidin-2-ylamino]-methyl}-benzenesulfonamide]",< 0.1 µM,5 to 25 µM
"CCOc1nc(NCc2ccc(S(N)(=O)=O)cc2)nc2ccc(-c3ccc(F)c(S(N)(=O)=O)c3)nc12 [Example 145, 5-[4-Ethoxy-2-(4-sulfamoyl-benzylamino)-pyrido[3,2-d]pyrimidin-6-yl]-2-fluoro-benzenesulfonamide]",< 0.1 µM,5 to 25 µM
"CCOc1nc(NCc2ccc(S(N)(=O)=O)cc2)nc2ccc(-c3ccc(NC(=O)[C@H](C)N)cc3)nc12 [Example 146, 2-Amino-N-{4-[4-ethoxy-2-(4-sulfamoyl-benzylamino)-pyrido[3,2-d]pyrimidin-6-yl]-phenyl}-propionamide]",< 0.1 µM,5 to 25 µM
"CCOc1nc(NCc2ccc(S(N)(=O)=O)cc2)nc2ccc(-c3ccc(NC(=O)[C@@H](N)[C@@H](C)O)cc3)nc12 [Example 147, 2-Amino-N-{4-[4-ethoxy-2-(4-sulfamoyl-benzylamino)-pyrido[3,2-d]pyrimidin-6-yl]-phenyl}-3-hydroxy-butyramide]",< 0.1 µM,< 5 µM
"CS(=O)(=O)CCNc1nc(NCc2ccc(S(N)(=O)=O)cc2)nc2ccc(-c3cnc(N)s3)nc12 [Example 148, 4-{[4-(2-Methanesulfonylethyl)-amino-6-(2-aminothiazole-5-yl)-pyrido[3,2-d]pyrimidin-2-ylamino]-methyl}-benzenesulfonamide]",< 0.1 µM,5 to 25 µM
"NS(=O)(=O)c1ccc(CNc2nc(NCC(F)(F)F)c3nc(-c4ccc(F)cc4)ccc3n2)cc1 [Example 149, 4-{[4-(2,2,2-Trifluoroethyl)-amino-6-(4-fluorophenyl)-pyrido[3,2-d]pyrimidin-2-ylamino]-methyl}-benzenesulfonamide]",< 0.1 µM,5 to 25 µM
"CS(=O)(=O)CCNc1nc(NCc2ccc(S(N)(=O)=O)cc2)nc2ccc(-c3ccc(F)c(Cl)c3)nc12 [Example 150, 4-{[4-(2-Methanesulfonylethyl)-amino-6-(3-chloro-4-fluorophenyl)-pyrido[3,2-d]pyrimidin-2-ylamino]-methyl}-benzenesulfonamide]",< 0.1 µM,< 5 µM
"NS(=O)(=O)c1ccc(CNc2nc(NCC(F)F)c3nc(-c4ccc(F)cc4)ccc3n2)cc1 [Example 151, 4-{[4-(2,2-Difluoroethyl)-amino-6-(4-fluorophenyl)-pyrido[3,2-d]pyrimidin-2-ylamino]-methyl}-benzenesulfonamide]",< 0.1 µM,< 5 µM
"CN(CCS(C)(=O)=O)c1nc(NCc2ccc(S(N)(=O)=O)cc2)nc2ccc(-c3ccc(F)cc3)nc12 [Example 152, 4-{[4-(N-(2-Methanesulfonylethyl)-N-methyl)-amino-6-(4-fluorophenyl)-pyrido[3,2-d]pyrimidin-2-ylamino]-methyl}-benzenesulfonamide]",< 0.1 µM,< 5 µM
"CS(=O)(=O)CCNc1nc(NCc2ccc(S(N)(=O)=O)cc2)nc2ccc(-c3ccc(F)cc3)nc12 [Example 153, 4-{[4-(2-Methanesulfonylethyl)-amino-6-(4-fluorophenyl)-pyrido[3,2-d]pyrimidin-2-ylamino]-methyl}-benzenesulfonamide]",< 0.1 µM,< 5 µM
"CC(C)(N)C(=O)Nc1ccc(-c2ccc3nc(NCc4ccc(S(N)(=O)=O)cc4)nc(NCCS(C)(=O)=O)c3n2)cc1 [Example 154, 4-{[4-(2-Methanesulfonylethyl)-amino-6-(4-((2-amino-2-propyl)-carboxamido)-phenyl)-pyrido[3,2-d]pyrimidin-2-ylamino]-methyl}-benzenesulfonamide]",0.1 to 0.25 µM,> 25 µM
"CS(=O)(=O)CCNc1nc(NCc2ccc(S(N)(=O)=O)cc2)nc2ccc(-c3ccc(NC(=O)C4(O)CC4)cc3)nc12 [Example 155, 4-{[4-(2-Methanesulfonylethyl)-amino-6-(4-((1-hydroxy-1-cyclopropyl)-carboxamido)-phenyl)-pyrido[3,2-d]pyrimidin-2-ylamino]-methyl}-benzenesulfonamide]",0.1 to 0.25 µM,> 25 µM
"N[C@@H](CO)C(=O)Nc1ccc(-c2ccc3nc(NCc4ccc(S(N)(=O)=O)cc4)nc(NCC(F)(F)F)c3n2)cc1 [Example 156, (S)-4-{[4-(2,2,2-Trifluoroethyl)-amino-6-(4-((2-hydroxy-1-aminoethyl)-carboxamido)-phenyl)-pyrido[3,2-d]pyrimidin-2-ylamino]-methyl}-benzenesulfonamide]",< 0.1 µM,< 5 µM
"CS(=O)(=O)N(CCO)c1cccc(-c2ccc3nc(NCc4ccc(S(N)(=O)=O)cc4)nc(NCC(F)F)c3n2)c1 [Example 157, 4-{[4-(2,2-Difluoroethyl)-amino-6-(4-(3-(N-2-hydroxyethyl)methane-sulfonamido)-phenyl)-pyrido[3,2-d]pyrimidin-2-ylamino]-methyl}-benzenesulfonamide]",< 0.1 µM,> 25 µM
"NS(=O)(=O)c1ccc(CNc2nc(NCC(F)(F)F)c3nc(-c4ccc(C(=O)NC5CC5)cc4)ccc3n2)cc1 [Example 158, 4-{[4-(2,2,2-Trifluoroethyl)-amino-6-(4-(N-cyclopropylcarbamoyl)-phenyl)-pyrido[3,2-d]pyrimidin-2-ylamino]-methyl}-benzenesulfonamide]",< 0.1 µM,5 to 25 µM
